In brackets after ≈: the same amount, converted by molar mass.
Experiments:
[1] = test system: Acinetobacter baumannii; experiment: Antibacterial activity against oxacillinase-27 producing Acinetobacter baumannii NCTC 13304 assessed as inhibition of bacterial growth incubated for 18 to 24 hrs by broth microdilution method; assay type: functional; settings: time 18-24 hrs
[2] = test system: Staphylococcus aureus; experiment: Antibacterial activity against Staphylococcus aureus ATCC 29213 assessed as inhibition of bacterial growth incubated for 18 to 24 hrs by broth microdilution method; assay type: functional; settings: time 18-24 hrs
[3] = test system: Klebsiella pneumoniae; experiment: Antibacterial activity against carbapenem resistant Klebsiella pneumoniae clinical isolate 19-17 assessed as inhibition of bacterial growth incubated for 18 to 24 hrs by broth microdilution method; assay type: functional; settings: time 18-24 hrs
[4] = test system: Klebsiella pneumoniae; experiment: Antibacterial activity against carbapenem resistant Klebsiella pneumoniae clinical isolate 19-15 assessed as inhibition of bacterial growth incubated for 18 to 24 hrs by broth microdilution method; assay type: functional; settings: time 18-24 hrs
[5] = test system: Staphylococcus aureus; experiment: Antibacterial activity against methicillin resistant Staphylococcus aureus ATCC 33591 assessed as inhibition of bacterial growth incubated for 18 to 24 hrs by broth microdilution method; assay type: functional; settings: time 18-24 hrs
[6] = test system: Escherichia coli; experiment: Antibacterial activity against Escherichia coli ATCC BAA-2523 assessed as inhibition of bacterial growth incubated for 18 to 24 hrs by broth microdilution method; assay type: functional; settings: time 18-24 hrs
[7] = test system: Escherichia coli; experiment: Antibacterial activity against Escherichia coli clinical isolate 19-2 assessed as inhibition of bacterial growth incubated for 18 to 24 hrs by broth microdilution method; assay type: functional; settings: time 18-24 hrs
[8] = test system: Klebsiella pneumoniae; experiment: Antibacterial activity against KPC producing Klebsiella pneumoniae ATCC BAA-1705 assessed as inhibition of bacterial growth incubated for 18 to 24 hrs by broth microdilution method; assay type: functional; settings: time 18-24 hrs
[9] = test system: Pseudomonas aeruginosa; experiment: Antibacterial activity against Pseudomonas aeruginosa clinical isolate 19-1 assessed as inhibition of bacterial growth incubated for 18 to 24 hrs by broth microdilution method; assay type: functional; settings: time 18-24 hrs
[10] = Cytotoxicity against human HK-2 cells assessed as inhibition of cell growth incubated for 72 hrs by CCK-8 assay; assay type: toxicity, cell-based
[11] = test system: Staphylococcus epidermidis; experiment: Antibacterial activity against methicillin resistant Staphylococcus epidermidis clinical isolate 19-5 assessed as inhibition of bacterial growth incubated for 18 to 24 hrs by broth microdilution method; assay type: functional; settings: time 18-24 hrs
[12] = test system: Staphylococcus epidermidis; experiment: Antibacterial activity against methicillin resistant Staphylococcus epidermidis clinical isolate 19-6 assessed as inhibition of bacterial growth incubated for 18 to 24 hrs by broth microdilution method; assay type: functional; settings: time 18-24 hrs
[13] = test system: Acinetobacter baumannii; experiment: Antibacterial activity against carbapenem resistant Acinetobacter baumannii clinical isolate 19-8 assessed as inhibition of bacterial growth incubated for 18 to 24 hrs by broth microdilution method; assay type: functional; settings: time 18-24 hrs
[14] = test system: Pseudomonas aeruginosa; experiment: Antibacterial activity against Pseudomonas aeruginosa ATCC 27853 assessed as inhibition of bacterial growth incubated for 18 to 24 hrs by broth microdilution method; assay type: functional; settings: time 18-24 hrs
[15] = test system: Escherichia coli; experiment: Antibacterial activity against Escherichia coli NCTC 13353 assessed as inhibition of bacterial growth incubated for 18 to 24 hrs by broth microdilution method; assay type: functional; settings: time 18-24 hrs
[16] = test system: Pseudomonas aeruginosa; experiment: Antibacterial activity against carbapenem resistant Pseudomonas aeruginosa clinical isolate 19-3 assessed as inhibition of bacterial growth incubated for 18 to 24 hrs by broth microdilution method; assay type: functional; settings: time 18-24 hrs
[17] = test system: Escherichia coli; experiment: Antibacterial activity against KPC producing Escherichia coli ATCC BAA-2340 assessed as inhibition of bacterial growth incubated for 18 to 24 hrs by broth microdilution method; assay type: functional; settings: time 18-24 hrs
[18] = test system: Pseudomonas aeruginosa; experiment: Antibacterial activity against carbapenem resistant Pseudomonas aeruginosa clinical isolate 17-1 assessed as inhibition of bacterial growth incubated for 18 to 24 hrs by broth microdilution method; assay type: functional; settings: time 18-24 hrs
[19] = Selectivity index, ratio of IC50 for cytotoxicity against human HK-2 cells to MIC for antibacterial activity against Escherichia coli ATCC BAA-2523; assay type: toxicity, cell-based

Structure (SMILES) | MIC [1] | MIC [2] | MIC [3] | MIC [4] | MIC [5] | MIC [6] | MIC [7] | MIC [8] | MIC [9] | IC50 at 72 h [10] | MIC [11] | MIC [12] | MIC [13] | MIC [14] | MIC [15] | MIC [16] | MIC [17] | MIC [18] | selectivity ratio [19]
CCCCCCCCCC(=O)N[C@H](CCN)C(=O)N[C@H]1CCNC(=O)[C@H]([C@@H](C)O)NC(=O)[C@H](CCN)NC(=O)[C@H](CCN)NC(=O)[C@H](CC(C)C)NC(=O)[C@H](CC(C)C)NC(=O)[C@H](CCN)NC1=O | > 64 µg/mL | > 64 µg/mL | > 64 µg/mL | > 64 µg/mL | > 64 µg/mL | > 64 µg/mL | > 64 µg/mL | > 64 µg/mL | > 64 µg/mL | 58.7 µg/mL (≈ 59.8 µM) | 4 µg/mL (≈ 4.07 µM) | 16 µg/mL (≈ 16.3 µM) | > 64 µg/mL | > 64 µg/mL | > 64 µg/mL | > 64 µg/mL | 64 µg/mL (≈ 65.2 µM) | > 64 µg/mL | < 0.9
CCCCCCC[C@@H](O)CC(=O)N[C@H](CCN)C(=O)N[C@H]1CCNC(=O)[C@H]([C@@H](C)O)NC(=O)[C@H](CCN)NC(=O)[C@H](CCN)NC(=O)[C@H](CC(C)C)NC(=O)[C@@H](CC(C)C)NC(=O)[C@H](CCN)NC1=O | 64 µg/mL (≈ 64.1 µM) | > 64 µg/mL | 8 µg/mL (≈ 8.01 µM) | 16 µg/mL (≈ 16 µM) | > 64 µg/mL | 4 µg/mL (≈ 4.01 µM) | 8 µg/mL (≈ 8.01 µM) | 2 µg/mL (≈ 2 µM) | 0.5 µg/mL (≈ 0.501 µM) | 206 µg/mL (≈ 206 µM) | 16 µg/mL (≈ 16 µM) | 64 µg/mL (≈ 64.1 µM) | 64 µg/mL (≈ 64.1 µM) | 0.5 µg/mL (≈ 0.501 µM) | 16 µg/mL (≈ 16 µM) | 1 µg/mL (≈ 1 µM) | 8 µg/mL (≈ 8.01 µM) | 0.5 µg/mL (≈ 0.501 µM) | 51.5
CCCCCCCCCC(=O)N[C@H](CCN)C(=O)N[C@H]1CCNC(=O)[C@H]([C@@H](C)O)NC(=O)[C@H](CCN)NC(=O)[C@H](CCN)NC(=O)[C@H](CC(C)C)NC(=O)[C@@H](Cc2ccc(Cl)c(Cl)c2)NC(=O)[C@H](CCN)NC1=O | 16 µg/mL (≈ 14.7 µM) | 16 µg/mL (≈ 14.7 µM) | 4 µg/mL (≈ 3.69 µM) | 4 µg/mL (≈ 3.69 µM) | 32 µg/mL (≈ 29.5 µM) | 2 µg/mL (≈ 1.84 µM) | 2 µg/mL (≈ 1.84 µM) | 4 µg/mL (≈ 3.69 µM) | 4 µg/mL (≈ 3.69 µM) | 28.5 µg/mL (≈ 26.3 µM) | 4 µg/mL (≈ 3.69 µM) | 4 µg/mL (≈ 3.69 µM) | 16 µg/mL (≈ 14.7 µM) | 16 µg/mL (≈ 14.7 µM) | 4 µg/mL (≈ 3.69 µM) | 4 µg/mL (≈ 3.69 µM) | 2 µg/mL (≈ 1.84 µM) | 16 µg/mL (≈ 14.7 µM) | 14.3
CC(C)C[C@@H]1NC(=O)[C@@H](CC(C)C)NC(=O)[C@H](CCN)NC(=O)[C@@H](NC(=O)[C@@H](CCN)NC(=O)CCCCCC(C)(C)C)CCNC(=O)[C@H]([C@@H](C)O)NC(=O)[C@H](CCN)NC(=O)[C@H](CCN)NC1=O | > 64 µg/mL | > 64 µg/mL | > 64 µg/mL | 64 µg/mL (≈ 65.2 µM) | > 64 µg/mL | 32 µg/mL (≈ 32.6 µM) | 32 µg/mL (≈ 32.6 µM) | 32 µg/mL (≈ 32.6 µM) | 2 µg/mL (≈ 2.04 µM) | 40.4 µg/mL (≈ 41.1 µM) | 8 µg/mL (≈ 8.14 µM) | > 64 µg/mL | > 64 µg/mL | 2 µg/mL (≈ 2.04 µM) | 32 µg/mL (≈ 32.6 µM) | 8 µg/mL (≈ 8.14 µM) | 16 µg/mL (≈ 16.3 µM) | 8 µg/mL (≈ 8.14 µM) | 1.3
CCCCCCCCCC(=O)N[C@H](CCN)C(=O)N[C@H]1CCNC(=O)[C@H]([C@@H](C)O)NC(=O)[C@H](CCN)NC(=O)[C@H](CCN)NC(=O)[C@H](CC(C)C)NC(=O)[C@@H](Cc2ccc(C)cc2)NC(=O)[C@H](CCN)NC1=O | 16 µg/mL (≈ 15.5 µM) | 32 µg/mL (≈ 31.1 µM) | 4 µg/mL (≈ 3.88 µM) | 4 µg/mL (≈ 3.88 µM) | > 64 µg/mL | 1 µg/mL (≈ 0.971 µM) | 2 µg/mL (≈ 1.94 µM) | 2 µg/mL (≈ 1.94 µM) | 1 µg/mL (≈ 0.971 µM) | 71.6 µg/mL (≈ 69.5 µM) | 2 µg/mL (≈ 1.94 µM) | 2 µg/mL (≈ 1.94 µM) | 32 µg/mL (≈ 31.1 µM) | 32 µg/mL (≈ 31.1 µM) | 8 µg/mL (≈ 7.76 µM) | 1 µg/mL (≈ 0.971 µM) | 1 µg/mL (≈ 0.971 µM) | 32 µg/mL (≈ 31.1 µM) | 71.6
